{
  "source": "patent US20150087598A1",
  "about": "“TREATING MUC1-EXPRESSING CANCERS WITH HELICASE INHIBITORS” (DANA-FARBER CANCER INSTITUTE, INC., priority 2012, published 2015)",
  "key": {"[1]": {"settings": "cited from earlier work"}, "MUC1-C [2]": {"tested_on": "MUC1-C", "assay": "Immunoblot of MUC1-C in growth factor-stimulated MCF-10A cells", "format": "cell-based, Human", "settings": "for HRG-induced increase in MUC1-C abundance: MCF-10A cells + HRG, indicated concentrations; for EGF- and HRG-induced MUC1-C translation: growth factor stimulation (summary in discussion)", "protocol": "(§1) Human MCF-10A mammary epithelial cells were grown in mammary epithelial growth medium (MEGM, Lonza). Human MCF-7 and MDA-MB-468 breast cancer cells were cultured in Dulbecco's modified Eagle's medium with 10% heat-inactivated fetal bovine serum (FBS), 100 U/ml penicillin, 100 μg/ml streptomycin and 2 mM L-glutamine. Human BT-549 cells were maintained in RPMI-1640 medium (ATCC) with 10% FBS and 0.023 IU/ml insulin. Cells were treated with EGF (Sigma), heregulin beta 1 (HRG; Neomarkers), cycloheximide (CHX, Calbiochem), U0126 (Calbiochem), LY294002 (Caymam Chemical Company), BEZ-235 (Selleckchem) and rapamycin Cell Signaling Technology). In certain experiments, MCF-10A cells were serum-starved overnight, and inhibitors were added 2.5 h prior to EGF or HRG treatment.\n(§2) Lysates from subconfluent cells were immunoblotted with anti-MUC1-C(AbS; Neomarkers), anti-β-actin (Sigma), anti-p-AKT, anti-AKT, anti-p-ERK1/2, anti-ERK1/2, anti-p-S6K1, anti-S6K1, anti-PCDC4, anti-eIF4E, eIF4A (Cell Signaling Technology) and anti-EGFR (Santa Cruz Technology) Immune complexes were detected with horseradish peroxidase-conjugated secondary antibodies and enhanced chemiluminescence (Amersham Biosciences). Intensity of certain signals was determined by densitometric scanning."}, "MUC1-C [3]": {"tested_on": "MUC1-C", "assay": "Immunoblot of MUC1-C in BT-549 breast cancer cells", "format": "cell-based, Human", "settings": "BT-549 cells, 100 nM, data not shown", "protocol": "as §1, §2"}, "MUC1-C [4]": {"tested_on": "MUC1-C", "assay": "Immunoblot of MUC1-C in MDA-MB-468 breast cancer cells", "format": "cell-based, Human", "settings": "MDA-MB-468 cells, 10 and 100 nM", "protocol": "as §1, §2"}, "MUC1-C [5]": {"tested_on": "MUC1-C", "assay": "Immunoblot of MUC1-C in MCF-7 breast cancer cells", "format": "cell-based, Human", "settings": "MCF-7 cells; for MUC1-C abundance: 100 nM", "protocol": "as §1, §2"}, "MCF-10A cells": {"tested_on": "MCF-10A cells", "assay": "EGF-stimulated MCF-10A cell growth, viable cell number by trypan blue exclusion", "format": "cell-based, Human", "settings": "100 nM, 24 h with EGF, reseeded, counted at 48 h", "text": "FIGS. 6A-D. MUC1-C translation is inhibited by CR-1-31-B in MCF-10A cells. (FIG. 6A) Structures of the indicated compounds."}, "MUC1 gene promoter": {"tested_on": "MUC1 gene promoter", "assay": "MUC1 promoter luciferase assay in MCF-10A cells", "format": "cell-based, Human", "settings": "pMUC1-Luc, EGF 100 ng/ml 5 h", "protocol": "Control pGL3 or pGL3-MUC1-promoter constructs were transfected with the Renilla plasmid into cells in the presence of Lipofectamine. At 24 h after transfection, cells were serum-starved overnight, and then treated with EGF (100 ng/ml) for 5 h. Luciferase reporter activity was measured using the Promega Dual Glo kit."}, "MUC1 mRNA": {"tested_on": "MUC1 mRNA", "assay": "MUC1 mRNA by qRT-PCR in MCF-10A cells", "format": "cell-based, Human", "settings": "EGF stimulation", "protocol": "Total RNA was isolated from cells using an RNeasy Mini kit (Qiagen). cDNAs were synthesized with 0.3-1 μg RNA using the first-strand cDNA synthesis kit (Invitrogen). The SYBR green qPCR assay kit (Applied Biosystems) was used with 5 μl of 20-fold diluted cDNA from each sample, and the samples were amplified with the ABI Prism 7300 machine (Applied Biosystems)."}, "CYP2C9": {"target": "CYP2C9 (Homo sapiens, UniProt P11712)", "sequence (P11712 whole entry)": "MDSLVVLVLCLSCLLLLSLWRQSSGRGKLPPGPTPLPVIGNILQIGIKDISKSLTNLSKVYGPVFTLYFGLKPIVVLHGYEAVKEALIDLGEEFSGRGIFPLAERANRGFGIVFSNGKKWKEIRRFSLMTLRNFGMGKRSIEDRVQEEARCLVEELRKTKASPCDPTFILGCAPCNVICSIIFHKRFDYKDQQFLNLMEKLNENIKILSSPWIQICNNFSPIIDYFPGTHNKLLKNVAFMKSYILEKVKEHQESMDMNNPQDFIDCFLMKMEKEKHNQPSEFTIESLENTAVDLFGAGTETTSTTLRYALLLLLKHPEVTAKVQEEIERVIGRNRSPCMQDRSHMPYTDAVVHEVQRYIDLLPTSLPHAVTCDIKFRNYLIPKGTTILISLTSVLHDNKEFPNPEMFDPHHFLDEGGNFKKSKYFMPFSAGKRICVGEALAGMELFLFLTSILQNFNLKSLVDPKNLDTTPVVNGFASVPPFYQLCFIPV", "settings": "background statement; cited from earlier work"}, "[6]": {"tested_on": "mitogen-activated protein kinase kinase (MEK)", "settings": "background statement; cited from earlier work"}, "cancer cells [7]": {"tested_on": "cancer cells", "settings": "literature, preclinical studies, cited from earlier work"}, "β-actin": {"tested_on": "β-actin", "assay": "β-actin abundance in growth factor-stimulated MCF-10A cells", "format": "cell-based, Human", "protocol": "as §2"}, "eIF4A RNA helicase": {"tested_on": "eIF4A RNA helicase", "settings": "literature; cited from earlier work"}, "cancer cells [8]": {"tested_on": "cancer cells", "settings": "literature; cited from earlier work"}, "PDCD4": {"tested_on": "PDCD4", "assay": "Immunoblot of PDCD4 in MCF-10A cells", "format": "cell-based, Human", "settings": "100 nM silvestrol", "protocol": "as §1, §2"}, "cyclin D1, MYC and MCL1": {"tested_on": "cyclin D1, MYC and MCL1", "settings": "literature; cited from earlier work"}, "[9]": {"settings": "MCF-10A cells + EGF, CHX 10 ng/ml, U0126 10 μM, LY294002 50 μM, BEZ235 250 or 500 nM, rapamycin 100 nM, silvestrol, CR-1-31-B, CR-1-30-B indicated concentrations 24 h"}},
  "note": "Read-outs that look alike come from different tables or passages of the source.",
  "data": [
    {"compound": "O=c1c(O)c(-c2ccc(O)cc2)oc2cc(O)cc(O)c12", "note": "[Kaempferol]", "values": [
      {"measurement": "solubility in water", "setting": "[1]", "value": "slightly soluble"}
    ]},
    {"compound": "Cn1c(=O)n(-c2ccc(C(C)(C)C#N)cc2)c2c3cc(-c4cnc5ccccc5c4)ccc3ncc21", "note": "[BEZ235]", "values": [
      {"measurement": "EGF-induced increase in MUC1-C abundance", "setting": "MUC1-C [2]; [9]", "value": "blocked"}
    ]},
    {"compound": "CR-1-31-B", "values": [
      {"measurement": "MUC1-C expression", "setting": "MUC1-C [3]", "value": "decreases"},
      {"measurement": "EGF-induced increase in MUC1-C abundance", "setting": "MUC1-C [2]; [9]", "value": "dose-dependent decrease"},
      {"measurement": "HRG-induced increase in MUC1-C abundance", "setting": "MUC1-C [2]; 24 h", "value": "blocked"},
      {"measurement": "EGF- and HRG-induced MUC1-C translation", "setting": "MUC1-C [2]; MCF-10A cells", "value": "similarly blocks"},
      {"measurement": "MUC1-C abundance", "setting": "MUC1-C [4]", "value": "decreases"},
      {"measurement": "MUC1-C abundance", "setting": "MUC1-C [5]", "value": "downregulation"},
      {"measurement": "growth of MCF-10A cells in response to EGF", "setting": "MCF-10A cells", "value": "attenuated"}
    ]},
    {"compound": "EGF: growth factor (Sigma) stimulating EGFR", "values": [
      {"measurement": "increase in MUC1-C expression compared to baseline levels", "setting": "MUC1-C [2]; MCF-10A cells, growth factor stimulation (EGF 100 ng/ml, HRG 10 ng/ml), 24 h", "value": 65, "unit": "fold"},
      {"measurement": "activation of the MUC1 gene promoter", "setting": "MUC1 gene promoter", "value": "no significant effect"},
      {"measurement": "MUC1 mRNA levels", "setting": "MUC1 mRNA", "value": "no apparent effect"},
      {"measurement": "effect of growth factor stimulation on MUC1-C levels", "setting": "MUC1-C [5]; EGF 100 ng/ml, HRG data not shown", "value": "no apparent effect"}
    ]},
    {"compound": "O=c1cc(-c2ccc(O)cc2)oc2cc(O)cc(O)c12", "note": "[Apigenin, 4′,5,7-trihydroxyflavone]", "values": [
      {"measurement": "inhibition of CYP2C9", "setting": "CYP2C9", "value": "potent inhibitor"}
    ]},
    {"compound": "COc1cccc(-c2cc(=O)c3ccccc3o2)c1N", "note": "[PD98059, 2-(2′-amino-3′-methoxyphenyl)-oxanaphthalen-4-one]", "values": [
      {"measurement": "inhibition of MEK", "setting": "[6]", "value": "potent inhibitor"}
    ]},
    {"compound": "COC(=O)[C@H]1[C@@H](O)[C@@]2(O)c3c(OC)cc(O[C@@H]4O[C@@H]([C@H](O)CO)CO[C@H]4OC)cc3O[C@@]2(c2ccc(OC)cc2)[C@@H]1c1ccccc1", "note": "[silvestrol]", "values": [
      {"measurement": "anti-tumor activity in animal models", "setting": "cancer cells [7]", "value": "promising anti-tumor activity"},
      {"measurement": "toxicity in animal models", "setting": "cancer cells [7]", "value": "little toxicity"},
      {"measurement": "anti-tumor activity in animal models", "setting": "cancer cells [7]; listed as Silvestrol", "value": "active"},
      {"measurement": "abundance of β-actin", "setting": "β-actin", "value": "little effect"},
      {"measurement": "EGF-induced increase in MUC1-C abundance", "setting": "MUC1-C [2]; [9]", "value": "blocked"},
      {"measurement": "HRG-induced increase in MUC1-C abundance", "setting": "MUC1-C [2]; 24 h", "value": "dose-dependent inhibitory effects"},
      {"measurement": "EGF- and HRG-induced MUC1-C translation", "setting": "MUC1-C [2]; MCF-10A cells", "value": "substantially blocked"},
      {"measurement": "activity against eIF4A RNA helicase", "setting": "eIF4A RNA helicase", "value": "potent inhibitor"},
      {"measurement": "activity against cancer cells growing in vitro", "setting": "cancer cells [8]", "value": "active"},
      {"measurement": "MUC1-C abundance", "setting": "MUC1-C [4]", "value": "clearly detectable"},
      {"measurement": "PDCD4 abundance", "setting": "PDCD4", "value": "marked decrease"},
      {"measurement": "MUC1-C levels", "setting": "MUC1-C [5]; 10 nM", "value": "limited effect"},
      {"measurement": "MUC1-C abundance", "setting": "MUC1-C [5]", "value": "more pronounced decrease"},
      {"measurement": "production of cyclin D1, MYC and MCL1", "setting": "cyclin D1, MYC and MCL1", "value": "decreases"}
    ]},
    {"compound": "N#CC(=C(/N)Sc1ccccc1N)/C(C#N)=C(\\N)Sc1ccccc1N", "note": "[U0126]", "values": [
      {"measurement": "EGF-induced increase in MUC1-C abundance", "setting": "MUC1-C [2]", "value": "not ERK1/2, blocked"}
    ]},
    {"compound": "C[C@@H]1C[C@@H]([C@H](O)CC2CC(=O)NC(=O)C2)C(=O)[C@@H](C)C1", "note": "[cycloheximide]", "values": [
      {"measurement": "EGF-induced increase in MUC1-C abundance", "setting": "MUC1-C [2]; [9]", "value": "blocked"}
    ]}
  ]
}
